Laboratory results taken from patent US20250230193A1, “CYCLIC COMPOUND HAVING SELECTIVE KRAS INHIBITORY EFFECT ON HRAS AND NRAS” (CHUGAI SEIYAKU KABUSHIKI KAISHA, priority 2022, published 2025).

Legend:
[1] = target: GDP-bound NRAS wild-type protein (Homo sapiens, UniProt P01111); experiment: Binding to NRAS by surface plasmon resonance (SPR), Single Cycle Kinetics; details: SPR; KD ratio class
[2] = target: GDP-bound HRAS wild-type protein (Homo sapiens, UniProt P01112); experiment: Binding to HRAS by surface plasmon resonance (SPR), Single Cycle Kinetics; details: SPR; KD ratio class
[3] = tested on: human lung cancer strain NCI-H441; experiment: cells; details: NCI-H441, 96 h, read-out: NCI-H441 IC50 (nM)

GDP-bound HRAS wild-type protein, sequence (P01112 whole entry): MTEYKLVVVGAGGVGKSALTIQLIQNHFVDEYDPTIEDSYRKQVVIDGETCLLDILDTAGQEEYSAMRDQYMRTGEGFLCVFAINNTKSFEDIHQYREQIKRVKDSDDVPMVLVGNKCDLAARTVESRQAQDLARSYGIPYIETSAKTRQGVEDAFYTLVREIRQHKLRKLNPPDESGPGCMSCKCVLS
GDP-bound NRAS wild-type protein, sequence (P01111 whole entry): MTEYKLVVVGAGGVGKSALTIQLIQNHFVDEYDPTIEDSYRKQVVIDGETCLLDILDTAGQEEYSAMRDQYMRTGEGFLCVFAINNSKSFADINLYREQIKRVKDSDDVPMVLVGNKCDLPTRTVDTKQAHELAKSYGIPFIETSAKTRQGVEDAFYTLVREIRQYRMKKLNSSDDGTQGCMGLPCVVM

CCO[C@@H]1C[C@H]2C(=O)NC3(CCC3)C(=O)N(C)[C@@H](C(CC)CC)C(=O)N(C)[C@H](C(=O)N(C)C)CC(=O)N(C)[C@@H](CC)C(=O)N[C@@H]([C@@H](C)CC)C(=O)N(C)CC(=O)N(C)[C@H]3C/C=C\CCN(C3=O)[C@@H](Cc3ccc(C(F)(F)F)cc3)C(=O)N(C)CC(=O)N[C@@H](CCc3cc(F)c(Cl)c(F)c3)C(=O)N2C1 [PP1230]
NRAS/KRAS (ratio of KD value for GDP-bound NRAS wild-type protein to KD value for KRAS) [1]: A (a compound having 10 or more and less than 20 is denoted as A)
HRAS/KRAS (ratio of KD value for GDP-bound HRAS wild-type protein to KD value for KRAS) [2]: A (a compound having 10 or more and less than 20 is denoted as A)
IC50 [3]: 110 nM

CCC[C@H]1C(=O)N[C@@H]([C@@H](C)CC)C(=O)N(C)CC(=O)N(C)[C@H]2C/C=C\CCN(C2=O)[C@@H](Cc2ccc(C(F)(F)F)cc2)C(=O)N(C)CC(=O)N[C@@H](CCc2cc(F)c(Cl)c(F)c2)C(=O)N2C[C@H](OCC)C[C@H]2C(=O)NC2(CCC2)C(=O)N(C)[C@@H](C(CC)CC)C(=O)N(C)[C@H](C(=O)N(C)C)CC(=O)N1C [PP1231]
NRAS/KRAS (ratio of KD value for GDP-bound NRAS wild-type protein to KD value for KRAS) [1]: AA (a compound having 20 or more is denoted as AA)
HRAS/KRAS (ratio of KD value for GDP-bound HRAS wild-type protein to KD value for KRAS) [2]: A (a compound having 10 or more and less than 20 is denoted as A)
IC50 [3]: 23.1 nM

CCO[C@@H]1C[C@H]2C(=O)NC3(CCC3)C(=O)N(C)[C@@H](C(CC)CC)C(=O)N(C)[C@H](C(=O)N(C)C)CC(=O)N(C)[C@@H](CC(C)C)C(=O)N[C@@H]([C@@H](C)CC)C(=O)N(C)CC(=O)N(C)[C@H]3C/C=C\CCN(C3=O)[C@@H](Cc3ccc(C(F)(F)F)cc3)C(=O)N(C)CC(=O)N[C@@H](CCc3cc(F)c(Cl)c(F)c3)C(=O)N2C1 [PP1232]
NRAS/KRAS (ratio of KD value for GDP-bound NRAS wild-type protein to KD value for KRAS) [1]: A (a compound having 10 or more and less than 20 is denoted as A)
HRAS/KRAS (ratio of KD value for GDP-bound HRAS wild-type protein to KD value for KRAS) [2]: A (a compound having 10 or more and less than 20 is denoted as A)
IC50 [3]: 59.7 nM

CCO[C@@H]1C[C@H]2C(=O)NC3(CCC3)C(=O)N(C)[C@@H](C(CC)CC)C(=O)N(C)[C@H](C(=O)N(C)C)CC(=O)N(C)[C@@H](CC3CC3)C(=O)N[C@@H]([C@@H](C)CC)C(=O)N(C)CC(=O)N(C)[C@H]3C/C=C\CCN(C3=O)[C@@H](Cc3ccc(C(F)(F)F)cc3)C(=O)N(C)CC(=O)N[C@@H](CCc3cc(F)c(Cl)c(F)c3)C(=O)N2C1 [PP1233]
NRAS/KRAS (ratio of KD value for GDP-bound NRAS wild-type protein to KD value for KRAS) [1]: AA (a compound having 20 or more is denoted as AA)
HRAS/KRAS (ratio of KD value for GDP-bound HRAS wild-type protein to KD value for KRAS) [2]: A (a compound having 10 or more and less than 20 is denoted as A)
IC50 [3]: 34.7 nM

CCO[C@@H]1C[C@H]2C(=O)NC3(CCC3)C(=O)N(C)[C@@H](C3CCCC3)C(=O)N(C)[C@@H](C(=O)N(C)C)CC(=O)N(C)[C@@H](CC)C(=O)N[C@@H]([C@@H](C)CC)C(=O)N(C)CC(=O)N(C)[C@H]3C/C=C\CCN(C3=O)[C@@H](Cc3ccc(C(F)(F)F)cc3)C(=O)N(C)CC(=O)N[C@@H](CCc3cc(F)c(C(F)(F)F)c(F)c3)C(=O)N2C1 [PP1234]
NRAS/KRAS (ratio of KD value for GDP-bound NRAS wild-type protein to KD value for KRAS) [1]: B (a compound having 3 or more and less than 10 is denoted as B)
HRAS/KRAS (ratio of KD value for GDP-bound HRAS wild-type protein to KD value for KRAS) [2]: C (A compound having a KD ratio of 0.1 or more and less than 3 is denoted as C)
IC50 [3]: 398 nM

CCO[C@@H]1C[C@H]2C(=O)NC3(CCC3)C(=O)N(C)[C@@H](C3CCCC3)C(=O)N(C)[C@@H](C(=O)N(C)C)CC(=O)N(C)[C@@H](CC3CCCC3)C(=O)N[C@@H]([C@@H](C)CC)C(=O)N(C)CC(=O)N(C)[C@H]3C/C=C\CCN(C3=O)[C@@H](Cc3ccc(C(F)(F)F)cc3)C(=O)N(C)CC(=O)N[C@@H](CCc3cc(F)c(C(F)(F)F)c(F)c3)C(=O)N2C1 [PP1235]
NRAS/KRAS (ratio of KD value for GDP-bound NRAS wild-type protein to KD value for KRAS) [1]: B (a compound having 3 or more and less than 10 is denoted as B)
HRAS/KRAS (ratio of KD value for GDP-bound HRAS wild-type protein to KD value for KRAS) [2]: C (A compound having a KD ratio of 0.1 or more and less than 3 is denoted as C)
IC50 [3]: 386 nM

CCO[C@@H]1C[C@H]2C(=O)NC3(CCC3)C(=O)N(C)[C@@H](C3CCCC3)C(=O)N(C)[C@H](C(=O)N(C)C)CC(=O)N(C)[C@@H](CC)C(=O)N[C@@H]([C@@H](C)CC)C(=O)N(C)CC(=O)N(C)[C@H]3C/C=C\CCN(C3=O)[C@@H](Cc3ccc(C(F)(F)F)cc3)C(=O)N(C)CC(=O)N[C@@H](CCc3ccc(Cl)c(Cl)c3)C(=O)N2C1 [PP1249]
NRAS/KRAS (ratio of KD value for GDP-bound NRAS wild-type protein to KD value for KRAS) [1]: A (a compound having 10 or more and less than 20 is denoted as A)
HRAS/KRAS (ratio of KD value for GDP-bound HRAS wild-type protein to KD value for KRAS) [2]: A (a compound having 10 or more and less than 20 is denoted as A)
IC50 [3]: 55.4 nM

CCC[C@H]1C(=O)N[C@@H]([C@@H](C)CC)C(=O)N(C)CC(=O)N(C)[C@H]2C/C=C\CCN(C2=O)[C@@H](Cc2ccc(C(F)(F)F)cc2)C(=O)N(C)CC(=O)N[C@@H](CCc2ccc(Cl)c(Cl)c2)C(=O)N2C[C@H](OCC)C[C@H]2C(=O)NC2(CCC2)C(=O)N(C)[C@@H](C2CCCC2)C(=O)N(C)[C@H](C(=O)N(C)C)CC(=O)N1C [PP1250]
NRAS/KRAS (ratio of KD value for GDP-bound NRAS wild-type protein to KD value for KRAS) [1]: AA (a compound having 20 or more is denoted as AA)
HRAS/KRAS (ratio of KD value for GDP-bound HRAS wild-type protein to KD value for KRAS) [2]: A (a compound having 10 or more and less than 20 is denoted as A)
IC50 [3]: 18.7 nM

CCO[C@@H]1C[C@H]2C(=O)NC3(CCC3)C(=O)N(C)[C@@H](C3CCCC3)C(=O)N(C)[C@H](C(=O)N(C)C)CC(=O)N(C)[C@@H](CC(C)C)C(=O)N[C@@H]([C@@H](C)CC)C(=O)N(C)CC(=O)N(C)[C@H]3C/C=C\CCN(C3=O)[C@@H](Cc3ccc(C(F)(F)F)cc3)C(=O)N(C)CC(=O)N[C@@H](CCc3ccc(Cl)c(Cl)c3)C(=O)N2C1 [PP1251]
NRAS/KRAS (ratio of KD value for GDP-bound NRAS wild-type protein to KD value for KRAS) [1]: AA (a compound having 20 or more is denoted as AA)
HRAS/KRAS (ratio of KD value for GDP-bound HRAS wild-type protein to KD value for KRAS) [2]: A (a compound having 10 or more and less than 20 is denoted as A)
IC50 [3]: 10.2 nM

CCCCCC[C@H]1C(=O)N[C@@H]([C@@H](C)CC)C(=O)N(C)CC(=O)N(C)[C@H]2C/C=C\CCN(C2=O)[C@@H](Cc2ccc(C(F)(F)F)cc2)C(=O)N(C)CC(=O)N[C@@H](CCc2ccc(Cl)c(Cl)c2)C(=O)N2C[C@H](OCC)C[C@H]2C(=O)NC2(CCC2)C(=O)N(C)[C@@H](C2CCCC2)C(=O)N(C)[C@H](C(=O)N(C)C)CC(=O)N1C [PP1252]
NRAS/KRAS (ratio of KD value for GDP-bound NRAS wild-type protein to KD value for KRAS) [1]: AA (a compound having 20 or more is denoted as AA)
HRAS/KRAS (ratio of KD value for GDP-bound HRAS wild-type protein to KD value for KRAS) [2]: A (a compound having 10 or more and less than 20 is denoted as A)
IC50 [3]: 51.2 nM

CCO[C@@H]1C[C@H]2C(=O)NC3(CCC3)C(=O)N(C)[C@@H](C3CCCC3)C(=O)N(C)[C@H](C(=O)N(C)C)CC(=O)N(C)[C@@H](CC3CCCC3)C(=O)N[C@@H]([C@@H](C)CC)C(=O)N(C)CC(=O)N(C)[C@H]3C/C=C\CCN(C3=O)[C@@H](Cc3ccc(C(F)(F)F)cc3)C(=O)N(C)CC(=O)N[C@@H](CCc3ccc(Cl)c(Cl)c3)C(=O)N2C1 [PP1254]
NRAS/KRAS (ratio of KD value for GDP-bound NRAS wild-type protein to KD value for KRAS) [1]: AA (a compound having 20 or more is denoted as AA)
HRAS/KRAS (ratio of KD value for GDP-bound HRAS wild-type protein to KD value for KRAS) [2]: A (a compound having 10 or more and less than 20 is denoted as A)
IC50 [3]: 28.3 nM

CCO[C@@H]1C[C@H]2C(=O)NC3(CCC3)C(=O)N(C)[C@@H](C3CCCC3)C(=O)N(C)[C@H](C(=O)N(C)C)CC(=O)N(C)[C@@H](CC)C(=O)N[C@@H]([C@@H](C)CC)C(=O)N(C)CC(=O)N(C)[C@H]3C/C=C\CCN(C3=O)[C@@H](Cc3ccc(C(F)(F)F)cc3)C(=O)N(C)CC(=O)N[C@@H](CCc3ccc4sccc4c3)C(=O)N2C1 [PP1255]
NRAS/KRAS (ratio of KD value for GDP-bound NRAS wild-type protein to KD value for KRAS) [1]: A (a compound having 10 or more and less than 20 is denoted as A)
HRAS/KRAS (ratio of KD value for GDP-bound HRAS wild-type protein to KD value for KRAS) [2]: A (a compound having 10 or more and less than 20 is denoted as A)
IC50 [3]: 156 nM

CCC[C@H]1C(=O)N[C@@H]([C@@H](C)CC)C(=O)N(C)CC(=O)N(C)[C@H]2C/C=C\CCN(C2=O)[C@@H](Cc2ccc(C(F)(F)F)cc2)C(=O)N(C)CC(=O)N[C@@H](CCc2ccc3sccc3c2)C(=O)N2C[C@H](OCC)C[C@H]2C(=O)NC2(CCC2)C(=O)N(C)[C@@H](C2CCCC2)C(=O)N(C)[C@H](C(=O)N(C)C)CC(=O)N1C [PP1256]
NRAS/KRAS (ratio of KD value for GDP-bound NRAS wild-type protein to KD value for KRAS) [1]: A (a compound having 10 or more and less than 20 is denoted as A)
HRAS/KRAS (ratio of KD value for GDP-bound HRAS wild-type protein to KD value for KRAS) [2]: A (a compound having 10 or more and less than 20 is denoted as A)
IC50 [3]: 69 nM

CCO[C@@H]1C[C@H]2C(=O)NC3(CCC3)C(=O)N(C)[C@@H](C3CCCC3)C(=O)N(C)[C@H](C(=O)N(C)C)CC(=O)N(C)[C@@H](CC(C)C)C(=O)N[C@@H]([C@@H](C)CC)C(=O)N(C)CC(=O)N(C)[C@H]3C/C=C\CCN(C3=O)[C@@H](Cc3ccc(C(F)(F)F)cc3)C(=O)N(C)CC(=O)N[C@@H](CCc3ccc4sccc4c3)C(=O)N2C1 [PP1257]
NRAS/KRAS (ratio of KD value for GDP-bound NRAS wild-type protein to KD value for KRAS) [1]: A (a compound having 10 or more and less than 20 is denoted as A)
HRAS/KRAS (ratio of KD value for GDP-bound HRAS wild-type protein to KD value for KRAS) [2]: A (a compound having 10 or more and less than 20 is denoted as A)
IC50 [3]: 54.3 nM

CCCCCC[C@H]1C(=O)N[C@@H]([C@@H](C)CC)C(=O)N(C)CC(=O)N(C)[C@H]2C/C=C\CCN(C2=O)[C@@H](Cc2ccc(C(F)(F)F)cc2)C(=O)N(C)CC(=O)N[C@@H](CCc2ccc3sccc3c2)C(=O)N2C[C@H](OCC)C[C@H]2C(=O)NC2(CCC2)C(=O)N(C)[C@@H](C2CCCC2)C(=O)N(C)[C@H](C(=O)N(C)C)CC(=O)N1C [PP1259]
NRAS/KRAS (ratio of KD value for GDP-bound NRAS wild-type protein to KD value for KRAS) [1]: A (a compound having 10 or more and less than 20 is denoted as A)
HRAS/KRAS (ratio of KD value for GDP-bound HRAS wild-type protein to KD value for KRAS) [2]: A (a compound having 10 or more and less than 20 is denoted as A)
IC50 [3]: 62 nM
